PMC3759991 (Clinical cancer research : an official journal of the …, 2012)
Where no end group is shown, it is not given here.

Experiments:
HLA-A*1101 = HLA-A*1101 (Homo sapiens, UniProt P04439, A114D/D185E/E176A/F33Y/L180Q/S129P/T187R); test: competitive MHC allele binding assay, A*1101
HLA-A*3301 = HLA-A*3301 (Homo sapiens, UniProt P04439, A270S/D185E/E176V/E277Q/E87N/F33T/G231S/H175R/I121M/I218V/I322F/K168Q/K210R/L300P/L318F/M331R/P217A/Q86R/Q94H/R138Q/T323A/T345S/T97I/V358M/Y195H); test: competitive MHC allele binding assay, A*3301
HLA-A*0301 = HLA-A*0301 (Homo sapiens, UniProt P04439); test: competitive MHC allele binding assay, A*0301
HLA-A*6801 = HLA-A*6801 (Homo sapiens, UniProt P04439, A269V/D185E/E176V/E277Q/E87N/F33Y/G231S/I121M/I166T/I218V/L180W/L300P/L318F/N151K/P208A/P217A/Q86R/R169H/T345S); test: competitive MHC allele binding assay, A*6801
HLA-A*3101 = HLA-A*3101 (Homo sapiens, UniProt P04439, A270S/D185E/E176V/E277Q/F33T/G231S/G80R/H175R/I121M/I218V/I322F/K168Q/L300P/L318F/M331R/P217A/Q94H/R138Q/T323A/T345S/T97I/V358M); test: competitive MHC allele binding assay, A*3101
HLA-A*3001 = HLA-A*3001 (Homo sapiens, UniProt P04439, D140H/D185E/E176W/F33S/G80R/H175R/K168Q/R138E/R41S); test: competitive MHC allele binding assay, A*3001

EVYEGVWKK [E225K-B WT] was tested, and the IC50 (HLA-A*1101) was 0.063 µM, the IC50 (HLA-A*3301) was 0.06 µM and the IC50 (HLA-A*0301) was 1.07 µM. For the same sequence, the IC50 (HLA-A*6801) was 0.01 µM, the IC50 (HLA-A*3101) was greater than 70 µM and the IC50 (HLA-A*3001) was greater than 70 µM.
Sequence KLGGGQYGK [E255K-A] has an IC50 (HLA-A*1101) of 1.07 µM, an IC50 (HLA-A*3301) greater than 70 µM and an IC50 (HLA-A*0301) of 0.208 µM. For the same sequence, the IC50 (HLA-A*6801) was 57.1 µM, the IC50 (HLA-A*3101) was 31.8 µM and the IC50 (HLA-A*3001) was 27.8 µM.
